Test results taken from patent US20110288014A1, “METHODS AND COMPOSITIONS FOR DIABETES TREATMENT AND PREVENTION” (TUM Technische Universitat Munchen, priority 2008, published 2011).
“Also recorded” adds a separate entry of the source.

What was measured:
[1] = tested on: mouse adipocytes (cell line 3T3-L1); assay: 2-deoxyglucose (2-DG) uptake, resorufin assay; format: cell-based
Description: Mouse adipocytes (cell line 3T3-L1) as well as mouse myotubes (cell line C2C12) were cultivated under standard conditions and treated either with regular cell culture medium or insulin for 4 hours. Afterwards, cells were exposed to a combination of 2-deoxyglucose (2-DG) and the respective sample, either N-MP, coffee beverage (content of NMP in the coffee beverage: 26.7 mg/L) or a combination of both, for 2 hours. Then, cells were harvested and the 2-DG uptake was analyzed photometrically using the resorufin assay (Yamamoto, N.; Sato, T.; Kawasaki, K.; Murosaki, S.; Yamamoto, Y. A nonradioisotope, enzymatic assay for 2-deoxyglucose uptake in L6 skeletal muscle cells cultured in a 96-well microplate. Analytical Biochemistry 2006, 351, 139-145).

[2] = tested on: mouse adipocytes (cell line 3T3-L1); assay: 2-deoxyglucose (2-DG) uptake, resorufin assay; format: cell-based; settings: for 2-DG uptake: first ten minutes after incubation, nearly independent of concentration
[3] = sample alone, no insulin cotreatment, compared to control cells

| Compound | 2-deoxyglucose uptake in adipocytes ([1]; in combination with insulin) | 2-deoxyglucose uptake in adipocytes [1, 3] | also measured |
| --- | --- | --- | --- |
| CCCCCCCCCCCCCCCC[n+]1ccccc1 [N-cetylpyridinium iodide] | excellent effects | excellent effects | 2-DG uptake ([2]; alone (FIG. 16 left panel)): excellent results; 2-DG uptake ([2]; co-treatment with insulin (FIG. 16 right panel)): excellent results |
| N-methylpyridinium [N-MP] | significantly enhance the effect of insulin | increased; also recorded: best results and effects | effectiveness of insulin on 2-deoxyglucose uptake ([1]; FIG. 5, in combination with coffee beverage and insulin): greatly enhance the effectiveness of insulin; 2-deoxyglucose uptake in adipocytes ([1]; sample alone, no insulin cotreatment, compared to control cells, listed as N-Methylpyridinium): enhance the uptake of 2-deoxyglucose in mouse adipocytes similarly insulin; 2-DG uptake by mouse adipocytes ([2]; FIG. 2, in combination with insulin, treatment times 1 min and 10 min, compared with insulin alone): statistically higher extent than insulin alone |
| Cc1cc[n+](C)cc1 [N-4-Methylpicolinium] | substantial increase | substantial increase | 2-DG uptake ([1]; alone or in combination with insulin, independently from the concentration used (FIGS. 10 and 11)): higher than 100%; 2-DG uptake ([1]; in some cases (FIG. 11, concurrent use of insulin)): > 200% |
| Cc1ccc[n+](C)c1 [N-3-Methylpicolinium iodide] |  | substantial improvement |  |
| CC[n+]1ccccc1 [N-ethylpyridinium iodide] |  | good results |  |
| C[n+]1ccccc1.[I-] [N-methylpyridinium iodide] | improved |  |  |
